From PubChem BioAssay (NCI) come the findings set out here.

For orientation: GI50 means the concentration at which growth is held to half of that of the control. In general, TGI refers to the concentration giving total growth inhibition.

Holding throughout (experiment): DTP human tumour cell line panel, 48 h
Test [1] has as its system SW-620 colon.
Test [2] has as its system M14 melanoma.
For test [3], the system named is SNB-75 CNS.
Test [4] deals with HT29 colon.
Test [5] relates to A549 NSCLC.
The subject of test [6] is BT-549 breast.
The subject of test [7] is UACC-257 melanoma.
Test [8] deals with KM12 colon.
Test [9] has as its system OVCAR-5 ovarian.
Test [10] has as its system HS 578T breast.

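All cell lines were grown in 96-well plates and treated with compound for 48 hours. Here, GI50 denotes the concentration required for 50% inhibition of growth. TGI is the concentration that stops growth completely.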

In the case of `O=C(Nc1cccc(-n2cc(-c3ccncc3)c(-c3ccc(O)c(Cl)c3)n2)c1)Nc1cccc(C(F)(F)F)c1`, the GI50 was 2.66 µM in [1]; 1.74 µM in [2]; 1.43 µM in test [3]; 3.75 µM in test [4]; 1.93 µM in [5]; 1.72 µM in test [6]. Also, the GI50 in test [7] was 2.35 µM; in test [8], 1.72 µM; in test [9], 3.5 µM; in test [10] it was 1.51 µM. The TGI in test [1] was 8.21 µM; in test [2], 3.94 µM; in test [3], 9.75 µM; in test [4] it was 13.7 µM; in test [5], 8.09 µM; in test [6] it was 4.08 µM. The TGI in [7] came out at 5.48 µM; in test [8] it was 3.48 µM; in [9], 36.3 µM; in test [10], 7.08 µM.

In the case of `COc1ccc2c(c1)C1(C(=O)N2)C(C#N)=C(c2ccccc2)Nc2c1c(-c1ccccc1)nn2-c1ccccc1` (stereo not given), the GI50 is 1.98 µM in [1]; 2.44 µM in test [2]; 1.39 µM in test [3]; 2.34 µM in test [4]; 2.49 µM in test [5]; 2.28 µM in test [6]. The GI50 was 16 µM in [7], 2.66 µM in test [8], 5.46 µM in test [9] and 4.1 µM in test [10]. Further, the TGI in test [1] amounted to 4.23 µM; in [2], 7.32 µM; in test [3], 3.43 µM; in test [4], 5.82 µM; in test [5], 5.55 µM; in test [6], 8.03 µM. Besides, the total growth inhibition concentration (TGI) in test [7] worked out at 31.5 µM; in test [8], 7.26 µM; in [9], 19.8 µM; in test [10] it was 19.3 µM.
